By pKi is commonly meant −log10 of the Ki, conventionally taken in molar units. As a reminder, the pEC50 is the negative decadic logarithm of the EC50, by convention in mol/L.

pEC50, pKi: −log10 of the molar value.

Among the data in patent publication US6093838A, “Amines substituted with a dihydro-benzofuranyl or with a dihydro-isobenzofuranyl group, an aryl or heteroaryl group and an alkyl group, having retinoid-like biological activity” (Allergan Sales, Inc., priority 1999, dated 2000) are Ki, EC50 and Emax values, retold here.

Assay [1] has as its target T1, RARα (Homo sapiens, UniProt P10276).
T1 sequence (P10276 1-462): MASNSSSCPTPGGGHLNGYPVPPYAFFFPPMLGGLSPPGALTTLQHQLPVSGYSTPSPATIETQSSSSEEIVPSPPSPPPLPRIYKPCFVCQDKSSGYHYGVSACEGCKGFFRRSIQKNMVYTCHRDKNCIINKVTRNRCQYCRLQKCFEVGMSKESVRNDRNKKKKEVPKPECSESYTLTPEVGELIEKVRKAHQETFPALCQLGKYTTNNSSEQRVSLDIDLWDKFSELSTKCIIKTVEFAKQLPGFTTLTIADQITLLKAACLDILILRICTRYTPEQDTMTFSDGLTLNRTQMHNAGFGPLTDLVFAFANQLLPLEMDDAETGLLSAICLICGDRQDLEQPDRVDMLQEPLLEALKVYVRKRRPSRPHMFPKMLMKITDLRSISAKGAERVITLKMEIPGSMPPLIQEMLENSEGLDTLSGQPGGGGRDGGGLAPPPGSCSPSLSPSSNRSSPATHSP
In words: ligand binding assay, RARα. Conditions: read-out: RAR Bind. Ki α. The text has this: (§1) Other assays described below, measure the ability of the compounds of the present invention to bind to, and/or activate various retinoid receptor subtypes. When in these assays a compound binds to a given receptor subtype and activates the transcription of a reporter gene through that subtype, then the compound is considered an agonist of that receptor subtype. […] In the below described assays the ability of the compounds to bind to RARα, RARβ, RARγ, RXRα, RXRβ and RXRγ receptors, and the ability or inability of the compounds to activate transcription of a reporter gene through these receptor subtypes can be tested. […] However, some of the compounds of the invention may behave as retinoid antagonists or partial antagonists and/or as inverse agonists. Because of the complex distribution of the different retinoid receptors in various organs of the mammalian body partial agonists and partial antagonists and compounds which have the characteristics of both may lend themselves to particularly useful therapeutic applications and may avoid serious side effects of conventional retinoid drugs.
(§2) A holoreceptor transactivation assay and a ligand binding assay which measure the antagonist/agonist like activity of the compounds of the invention, or their ability to bind to the several retinoid receptor subtypes, respectively, are described in published PCT Application No. WO WO93/11755 (particularly on pages 30-33 and 37-41) published on Jun. 24, 1993, the specification of which is also incorporated herein by reference. A detailed experimental procedure for holoreceptor transactivations has been described by Heyman et al. Cell 68, 397-406, (1992); Allegretto et al. J. Biol. Chem. 268, 26625-26633, and Mangelsdorf et al. The Retinoids: Biology, Chemistry and Medicine, pp 319-349, Raven Press Ltd., New York, which are expressly incorporated herein by reference. The results obtained in this assay are expressed in EC50 numbers, as they are also in the chimeric receptor transactivation assay. The results of ligand binding assay are expressed in Kd numbers. (See Cheng et al. Biochemical Pharmacology Vol. 22 pp 3099-3108, expressly incorporated herein by reference.)
(§3) Table 1 discloses the activity of certain exemplary compounds of the invention in the above-described chimeric receptor transactivation assay, holoreceptor transactivation assay and a ligand binding assays. Particularly, the transactivation data pertaining to RAR receptors were obtained in the chimeric assay, and the data pertaining to transactivation of RXR receptors were obtained in the holoreceptor transactivation assay.

Assay [2] deals with T2, RARβ (Homo sapiens, UniProt P10826).
T2 sequence (P10826 1-448 isoform P10826-2): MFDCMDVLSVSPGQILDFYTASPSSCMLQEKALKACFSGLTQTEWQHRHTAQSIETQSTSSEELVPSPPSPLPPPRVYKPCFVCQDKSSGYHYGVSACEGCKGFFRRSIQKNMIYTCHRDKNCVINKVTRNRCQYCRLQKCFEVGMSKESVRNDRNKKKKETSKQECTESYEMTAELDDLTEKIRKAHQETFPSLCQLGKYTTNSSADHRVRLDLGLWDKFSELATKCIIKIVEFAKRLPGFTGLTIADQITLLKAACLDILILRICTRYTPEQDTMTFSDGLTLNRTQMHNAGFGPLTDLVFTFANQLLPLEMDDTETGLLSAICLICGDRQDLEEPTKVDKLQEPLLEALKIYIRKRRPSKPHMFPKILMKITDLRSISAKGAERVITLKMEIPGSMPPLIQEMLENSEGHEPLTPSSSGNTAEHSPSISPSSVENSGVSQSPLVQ
Briefly: ligand binding assay, RARβ. Conditions: read-out: RAR Bind. Ki β.
Excerpt: as §1, §2, §3

The target of assay [3] is T3, RARγ (Homo sapiens, UniProt P13631).
T3 sequence (P13631 1-454): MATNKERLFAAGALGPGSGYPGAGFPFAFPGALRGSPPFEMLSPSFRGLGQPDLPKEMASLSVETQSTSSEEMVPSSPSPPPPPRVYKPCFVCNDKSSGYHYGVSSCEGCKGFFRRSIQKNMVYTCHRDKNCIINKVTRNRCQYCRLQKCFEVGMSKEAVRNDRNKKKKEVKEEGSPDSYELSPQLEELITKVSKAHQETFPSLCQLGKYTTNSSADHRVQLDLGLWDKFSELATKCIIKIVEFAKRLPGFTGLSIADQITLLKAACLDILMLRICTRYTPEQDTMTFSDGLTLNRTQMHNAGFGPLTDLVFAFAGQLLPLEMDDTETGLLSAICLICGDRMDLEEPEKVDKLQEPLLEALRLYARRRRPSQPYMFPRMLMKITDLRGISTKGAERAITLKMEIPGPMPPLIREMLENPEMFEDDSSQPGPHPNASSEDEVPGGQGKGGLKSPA
In words: ligand binding assay, RARγ. The following applies: read-out: RAR Bind. Ki γ.
Excerpt: as §1, §2, §3

For assay [4], the target named is T4, RXRα (Homo sapiens, UniProt P19793).
T4 construct: expressed in transfected cells
T4 sequence (P19793 1-462): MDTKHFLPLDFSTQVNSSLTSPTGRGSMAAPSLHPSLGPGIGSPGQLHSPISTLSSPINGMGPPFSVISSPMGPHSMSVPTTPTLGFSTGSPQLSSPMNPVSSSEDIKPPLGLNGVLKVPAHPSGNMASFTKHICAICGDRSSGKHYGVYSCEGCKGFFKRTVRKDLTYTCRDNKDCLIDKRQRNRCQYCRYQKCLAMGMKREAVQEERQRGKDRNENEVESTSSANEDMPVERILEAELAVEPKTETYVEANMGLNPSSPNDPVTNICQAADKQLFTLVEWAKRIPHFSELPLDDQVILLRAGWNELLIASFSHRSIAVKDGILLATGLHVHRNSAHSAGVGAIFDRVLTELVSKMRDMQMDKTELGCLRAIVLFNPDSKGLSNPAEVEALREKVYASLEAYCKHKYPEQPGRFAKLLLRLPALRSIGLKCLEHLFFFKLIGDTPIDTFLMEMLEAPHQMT
Briefly: ligand binding assay, RXRα. The following applies: read-out: RXR Bind Ki α.
Excerpt: as §1, §2, §3

The target of assay [5] is RXRβ. In words: ligand binding assay, RXRβ. The following applies: read-out: RXR Bind Ki β.
Excerpt: as §1, §2, §3

In assay [6] the target is RXRγ. In words: ligand binding assay, RXRγ. Conditions: read-out: RXR Bind Ki γ.
Excerpt: as §1, §2, §3

Assay [7] has as its target T4, RXRα. In words: holoreceptor transactivation assay, RXRα. In kind it is cell-based. The following applies: for pEC50: holoreceptor transactivation, RXRα, read-out: RXR Trans. EC50 α; for Emax: relative to 10^-6 M cyclopropyl penta-2,4-dienoic acid reference (RXRs), read-out: % efficacy (RXRα transactivation).
Excerpt: as §1, §2, §3

Assay [8] addresses T5, RXRγ (Mus musculus, UniProt P28705).
T5 construct: expressed in transfected cells
T5 sequence (P28705 1-463): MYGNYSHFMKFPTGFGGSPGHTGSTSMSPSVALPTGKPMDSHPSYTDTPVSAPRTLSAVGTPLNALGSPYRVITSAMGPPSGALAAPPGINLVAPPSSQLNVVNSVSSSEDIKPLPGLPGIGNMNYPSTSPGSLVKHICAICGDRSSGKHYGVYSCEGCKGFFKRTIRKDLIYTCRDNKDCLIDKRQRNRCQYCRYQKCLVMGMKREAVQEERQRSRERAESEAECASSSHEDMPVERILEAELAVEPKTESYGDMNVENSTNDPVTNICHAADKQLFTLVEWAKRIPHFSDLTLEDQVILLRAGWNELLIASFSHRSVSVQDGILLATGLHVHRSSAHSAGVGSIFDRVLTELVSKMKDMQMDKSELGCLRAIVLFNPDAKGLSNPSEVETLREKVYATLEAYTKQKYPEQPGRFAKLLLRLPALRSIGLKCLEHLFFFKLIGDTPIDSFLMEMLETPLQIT
Briefly: holoreceptor transactivation assay, RXRγ. In kind it is cell-based. The following applies: for pEC50: holoreceptor transactivation, RXRγ, read-out: RXR Trans. EC50 γ; for Emax: relative to 10^-6 M cyclopropyl penta-2,4-dienoic acid reference (RXRs), read-out: % efficacy (RXRγ transactivation).
Excerpt: as §1, §2, §3

For assay [9], the target named is T6, RXRβ (Mus musculus, UniProt P28704).
T6 construct: expressed in transfected cells
T6 sequence (P28704 1-520): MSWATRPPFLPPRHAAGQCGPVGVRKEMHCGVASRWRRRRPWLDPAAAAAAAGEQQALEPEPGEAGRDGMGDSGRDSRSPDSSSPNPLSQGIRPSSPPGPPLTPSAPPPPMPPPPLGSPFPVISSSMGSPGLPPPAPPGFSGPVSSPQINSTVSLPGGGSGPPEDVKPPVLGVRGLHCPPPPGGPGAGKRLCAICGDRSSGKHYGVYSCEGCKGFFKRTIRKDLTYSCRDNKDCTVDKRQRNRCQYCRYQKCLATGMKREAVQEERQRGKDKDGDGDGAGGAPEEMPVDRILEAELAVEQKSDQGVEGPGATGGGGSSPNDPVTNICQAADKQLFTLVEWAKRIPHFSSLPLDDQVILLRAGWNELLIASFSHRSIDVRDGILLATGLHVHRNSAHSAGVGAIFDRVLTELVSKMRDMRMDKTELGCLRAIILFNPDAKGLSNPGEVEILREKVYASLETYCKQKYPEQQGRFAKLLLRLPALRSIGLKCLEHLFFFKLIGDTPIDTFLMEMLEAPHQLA
Briefly: holoreceptor transactivation assay, RXRβ. In kind it is cell-based.
Excerpt: as §1, §2, §3

Turning to `Cc1cc(N(C)c2ccc(C(=O)O)cc2)cc2c1OCC2(C)C` [Compound 26, 4-[Methyl-(3,3,7-trimethyl-2,3-dihydro-benzofuran-5-yl)-amino]-benzoic acid], the negative-log Ki (pKi) was less than 4.52 in assay [1]; less than 4.52 in assay [2]; 5.17 in [3]; 5.00 in assay [4]; less than 4.00 in [5]; less than 4.00 in assay [6].
Consider `CCc1cc(N(C)c2ccc(C(=O)O)cc2)cc2c1OCC2(C)C` [Compound 28, 4-[Methyl-(7-ethyl-3,3-dimethyl-2,3-dihydro-benzofuran-5-yl)-amino]-benzoicacid], for which the pEC50 in [7] and in assay [8] was less than 6.00 in each case. In addition, the Emax in assay [7] is 25%; in [8], 15%. The pKi is 5.03 in [1]; less than 5.00 in assay [2]; 5.35 in [3]; less than 5.00 in [4]; less than 5.00 in assay [5]; less than 5.00 in [6].
`Cc1cc(N(c2ccc(C(=O)O)cc2)C(C)C)cc2c1OCC2(C)C` [Compound 41, 4-[Isopropyl-(3,3,7-trimethyl-2,3-dihydro-benzofuran-5-yl)-amino]-benzoic acid]: the pEC50 in [7] was 6.00. The Emax in assay [7] amounted to 75%. For the same molecule, the pKi was less than 4.52 in [1]; less than 4.52 in assay [2]; less than 4.52 in assay [3]; 5.04 in assay [4]; less than 4.00 in [5]; less than 4.00 in assay [6].
For the molecule `CCN(c1ccc(C(=O)O)cc1)c1cc2c(c(C(C)C)c1C)OCC2(C)C` [Compound 70, 4-[Ethyl-(7-isopropyl-3,3,6-trimethyl-2,3-dihydro-benzofuran-5-yl)-amino]-benzoic acid], the pEC50 is 7.96 in assay [7]; 7.14 in assay [9] (holoreceptor transactivation, RXRβ, read-out: RXR Trans. EC50 β); 7.74 in assay [8]. The Emax stood at 119% in assay [7]; 113% in assay [9] (relative to 10^-6 M cyclopropyl penta-2,4-dienoic acid reference (RXRs), read-out: % efficacy (RXRβ transactivation)); 120% in assay [8].
